# Source: patent US20160324174A1, “EDIBLE COATING FOR PRESERVING PIECES OF FRUIT, PRODUCTION METHOD AND APPLICATION THEREOF” (PRODUCTION AND INNOVATION ON EDIBLE COATINGS, S.L., priority 2014, published 2016)
# Tested on: pieces of apple (Golden delicious)
# Assay: Sensory evaluation of coated pieces of apple during 15 days storage at 4° C.
# Settings: for Hydration: scale 1 to 10, 10 = complete hydration of the product surface; for Texture: scale 1 to 10, 10 = firm crisp texture; for Color: sensory scale 1 to 10, 10 = total absence of browning
# Method: Apples of the Golden delicious variety were used. They were washed on the surface and disinfected by immersion in a sodium hypochlorite (80 ppm) solution. After disinfection, the apples were cored and cut manually into […] (quarters), which were immediately coated. […] In any of the cases, the components were dissolved in water, by constant stirring, until completely dissolved, the temperature of both the water and of the solution being held at 6° C. until their use as coating. The pieces of apple were immersed for 1 minute in each of the solutions. In the case of the control sample, the pieces of apple were immersed in cold water for the same period of time. After this, the samples were drained for 1 minute in order to remove any excess coating that might remain on the surface of the fruit. Finally, the fruit was manually packaged in plastic tubs (PET), without the use of a modified atmosphere, and stored at 4° C. for 15 days. […] The scale of evaluation was from 1 to 10, 10 being the highest mark awarded to the parameter evaluated, namely, a product with the same quality as the freshly cut fruit, and 1 being a very bad quality product (rejectable).
# [1] = apple pieces, day 1 in storage at 4° C.
# [2] = apple pieces, day 8 in storage at 4° C.
# [3] = apple pieces, day 15 in storage at 4° C.
substance,measurement,setting,value
calcium ascorbate [Calcium ascorbate (6% p/p)],appearance of first symptoms of dehydration,apple pieces in storage at 4° C.,from the first week of storage
same,maintenance of the original color of the apple,"apple pieces, 15 days storage at 4° C.",throughout almost all of the period of storage
same,General appearance,[1],Good
same,Hydration,[1],10
same,Texture,[1],10
same,Color,[1],10
same,General appearance,[2],Dehydrated
same,Hydration,[2],5
same,Texture,[2],8
same,Color,[2],9
same,General appearance,[3],"Very dehydrated,"
same,Hydration,[3],4
same,Texture,[3],7
same,Color,[3],8
